In ChEMBL document CHEMBL3352746, “Synthesis and anticancer activity of quinopimaric and maleopimaric acids’ derivatives” (Bioorg Med Chem, 2014):

Assays:
[1] = Growth inhibition of human OVCAR5 cells; assay type: functional
P388 [2] = experiment: Antitumor activity against mouse P388 cells implanted in mouse assessed as increase in life span at 20 mg/kg, ip dosed daily for 5 days administered 24 hrs after tumor implantation; assay type: functional; settings: route intraperitoneal
CAKI-1 = experiment: Growth inhibition of human CAKI-1 cells; assay type: functional
SK-OV-3 = experiment: Growth inhibition of human SKOV3 cells; assay type: functional
[3] = Antitumor activity against mouse AKATOL cells implanted in mouse assessed as tumor growth inhibition at 40 mg/kg, ip dosed daily for 5 days measured 5 days after treatment termination; assay type: functional; settings: 120 h, route intraperitoneal, read-out: TGI
[4] = Growth inhibition of human OVCAR8 cells; assay type: functional, OVCAR-8
Mus musculus [5] = experiment: Toxicity in mouse P388 cells implanted mouse assessed as mean spleen weight at 20 mg/kg, ip dosed daily for 5 days administered 24 hrs after tumor implantation; assay type: organism-based; set-up: dose 20 mg/kg, route intraperitoneal; settings: in vivo
[6] = test system: Lewis lung carcinoma cell line; experiment: Antitumor activity against mouse LLC cells implanted in mouse assessed as tumor growth inhibition at 40 mg/kg, ip dosed daily for 5 days measured 19 days after treatment termination; assay type: functional; settings: route intraperitoneal, read-out: TGI
P388 [7] = experiment: Antitumor activity against mouse P388 cells implanted in mouse assessed as increase in life span at 60 mg/kg, ip dosed daily for 5 days administered 24 hrs after tumor implantation; assay type: functional; settings: route intraperitoneal
[8] = test system: Lewis lung carcinoma cell line; experiment: Antitumor activity against mouse LLC cells implanted in mouse assessed as tumor growth inhibition at 40 mg/kg, ip dosed daily for 5 days measured 8 to 9 days after treatment termination; assay type: functional; settings: route intraperitoneal, read-out: TGI
HOP-62 = experiment: Growth inhibition of human HOP62 cells; assay type: functional
[9] = Antitumor activity against mouse AKATOL cells implanted in mouse assessed as tumor growth inhibition at 40 mg/kg, ip dosed daily for 5 days measured 16 days after treatment termination; assay type: functional; settings: route intraperitoneal, read-out: TGI
[10] = Antitumor activity against mouse AKATOL cells implanted in mouse assessed as tumor growth inhibition at 40 mg/kg, ip dosed daily for 5 days measured 12 days after treatment termination; assay type: functional; settings: route intraperitoneal, read-out: TGI
Mus musculus [11] = experiment: Toxicity in mouse P388 cells implanted mouse assessed as mean ascites volume at 20 mg/kg, ip dosed daily for 5 days administered 24 hrs after tumor implantation; assay type: organism-based; set-up: dose 20 mg/kg, route intraperitoneal; settings: in vivo
[12] = Growth inhibition of human COLO205 cells; assay type: functional
[13] = Growth inhibition of human Hs 578T cells; assay type: functional
[14] = Antitumor activity against mouse CA-755 cells implanted in mouse assessed as tumor growth inhibition at 40 mg/kg, ip dosed daily for 5 days measured 8 to 9 days after treatment termination; assay type: functional; settings: CA-755, ip, route intraperitoneal, read-out: TGI
Mus musculus [15] = experiment: Toxicity in mouse P388 cells implanted mouse assessed as mouse mortality at 20 mg/kg, ip dosed daily for 5 days administered 24 hrs after tumor implantation; assay type: organism-based; set-up: dose 20 mg/kg, route intraperitoneal; settings: in vivo
HL-60(TB) = experiment: Growth inhibition of human HL-60(TB) cells; assay type: functional
Malme-3M = experiment: Growth inhibition of human MALME-3M cells; assay type: functional
T47D = experiment: Growth inhibition of human T47D cells; assay type: functional
P388 [16] = experiment: Antitumor activity against mouse P388 cells implanted in mouse assessed as increase in life span at 40 mg/kg, ip dosed daily for 5 days administered 24 hrs after tumor implantation; assay type: functional; settings: route intraperitoneal
[17] = Growth inhibition of human LOXIMVI cells; assay type: functional; settings: LOX IMVI
[18] = Antitumor activity against mouse Ehrlich carcinoma cells implanted in mouse assessed as increase in life span at 50 mg/kg, ip dosed daily for 5 days administered 48 hrs after tumor implantation; assay type: functional; settings: route intraperitoneal
Mus musculus [19] = experiment: Toxicity in mouse P388 cells implanted mouse assessed as mean ascites volume at 40 mg/kg, ip dosed daily for 5 days administered 24 hrs after tumor implantation; assay type: organism-based; set-up: dose 40 mg/kg, route intraperitoneal; settings: in vivo
Mus musculus [20] = experiment: Toxicity in mouse Ehrlich carcinoma cells implanted mouse assessed as mean spleen weight at 50 mg/kg, ip dosed daily for 5 days administered 48 hrs after tumor implantation; assay type: organism-based; set-up: dose 50 mg/kg, route intraperitoneal; settings: in vivo
[21] = Growth inhibition of human HCT116 cells; assay type: functional
[22] = Growth inhibition of human RXF393 cells; assay type: functional
Mus musculus [23] = experiment: Toxicity in mouse P388 cells implanted mouse assessed as mouse mortality at 10 mg/kg, ip dosed daily for 5 days administered 24 hrs after tumor implantation; assay type: organism-based; set-up: dose 10 mg/kg, route intraperitoneal; settings: in vivo
CCRF-CEM = experiment: Growth inhibition of human CCRF-CEM cells; assay type: functional
SR = experiment: Growth inhibition of human SR cells; assay type: functional
A498 = experiment: Growth inhibition of human A498 cells; assay type: functional
SNB-75 = experiment: Growth inhibition of human SNB75 cells; assay type: functional
M14 = experiment: Growth inhibition of human M14 cells; assay type: functional
[24] = Antitumor activity against mouse CA-755 cells implanted in mouse assessed as tumor growth inhibition at 40 mg/kg, ip dosed daily for 5 days measured 5 days after treatment termination; assay type: functional; settings: CA-755, ip, 120 h, route intraperitoneal, read-out: TGI
Mus musculus [25] = experiment: Toxicity in mouse P388 cells implanted mouse assessed as mean spleen weight at 10 mg/kg, ip dosed daily for 5 days administered 24 hrs after tumor implantation; assay type: organism-based; set-up: dose 10 mg/kg, route intraperitoneal; settings: in vivo
[26] = test system: Lewis lung carcinoma cell line; experiment: Antitumor activity against mouse LLC cells implanted in mouse assessed as increase in life span at 40 mg/kg, ip dosed daily for 5 days; assay type: functional; settings: 120 h, route intraperitoneal
[27] = Growth inhibition of human EKVX cells; assay type: functional
TK-10 = experiment: Growth inhibition of human TK10 cells; assay type: functional
[28] = Growth inhibition of human RPMI8226 cells; assay type: functional, RPMI-8226
[29] = read-out: pLC50 (the source's name) (converted)

COC(=O)[C@]1(C)CCC[C@]2(C)[C@H]3C[C@H]4C(C(C)C)=C[C@]3(CC[C@H]21)[C@@H]1/C(=N/O)CC/C(=N\O)[C@@H]14
GI50 ([1]; OVCAR-5): 5.62 µM | CC50 ([1]; OVCAR-5, read-out: pLC50 (the source's name) (converted)): 63.1 µM | TGI ([1]; OVCAR-5, read-out: pTGI (converted)): 20 µM | ILS at 20 mg/kg (P388 [2]): -4% | GI50 (CAKI-1; CAKI-1): 7.08 µM | CC50 (CAKI-1; CAKI-1, read-out: pLC50 (converted)): > 100 µM | TGI (CAKI-1; CAKI-1, read-out: pTGI (converted)): 32.4 µM | GI50 (SK-OV-3): 10.2 µM | CC50 (SK-OV-3; [29]): 47.9 µM | TGI (SK-OV-3; read-out: pTGI (converted)): 22.4 µM | inhibition in vivo at 40 mg/kg [3]: 60% | GI50 ([4]; OVCAR-8): 3.24 µM | CC50 ([4]; OVCAR-8, read-out: pLC50 (converted)): > 100 µM | TGI ([4]; OVCAR-8, read-out: pTGI (converted)): 12.6 µM | Activity (Mus musculus [5]): 101 mg | inhibition in vivo at 40 mg/kg [6]: 37% | ILS at 60 mg/kg (P388 [7]): -10% | inhibition in vivo at 40 mg/kg [8]: 20% | GI50 (HOP-62): 15.1 µM | CC50 (HOP-62; [29]): 95.5 µM | TGI (HOP-62; read-out: pTGI (converted)): 38 µM | inhibition in vivo at 40 mg/kg [9]: 47% | inhibition in vivo at 40 mg/kg [10]: 34% | Activity (Mus musculus [11]): 0.57 mL | GI50 ([12]; COLO 205): 2.19 µM | CC50 ([12]; COLO 205, read-out: pLC50 (the source's name) (converted)): 8.51 µM | TGI ([12]; COLO 205, read-out: pTGI (converted)): 4.37 µM | GI50 [13]: 0.01 µM | CC50 [13, 29]: 11.2 µM | TGI ([13]; read-out: pTGI (converted)): 2.04 µM | inhibition in vivo at 40 mg/kg [14]: 52% | Activity (Mus musculus [15]): Non-toxic | GI50 (HL-60(TB)): 1.95 µM | CC50 (HL-60(TB); [29]): 36.3 µM | TGI (HL-60(TB); read-out: pTGI (converted)): 4.57 µM | GI50 (Malme-3M): 5.89 µM | CC50 (Malme-3M; [29]): 50.1 µM | TGI (Malme-3M; read-out: pTGI (converted)): 20 µM | GI50 (T47D): 1.91 µM | CC50 (T47D; [29]): 24.5 µM | TGI (T47D; read-out: pTGI (converted)): 4.68 µM | ILS at 40 mg/kg (P388 [16]): -7% | GI50 [17]: 2 µM | CC50 [17, 29]: 7.76 µM | TGI ([17]; read-out: pTGI (converted)): 3.98 µM | ILS at 50 mg/kg [18]: -3% | Activity (Mus musculus [19]): 1.2 mL | Activity (Mus musculus [20]): 104 mg | GI50 ([21]; HCT-116): 2.75 µM | CC50 ([21]; HCT-116, read-out: pLC50 (the source's name) (converted)): 47.9 µM | TGI ([21]; HCT-116, read-out: pTGI (converted)): 8.51 µM | GI50 ([22]; RXF 393): 2.14 µM | CC50 ([22]; RXF 393, read-out: pLC50 (the source's name) (converted)): 8.91 µM | TGI ([22]; RXF 393, read-out: pTGI (converted)): 4.37 µM | Activity (Mus musculus [23]): Non-toxic | GI50 (CCRF-CEM): 2.4 µM | CC50 (CCRF-CEM; [29]): 50.1 µM | TGI (CCRF-CEM; read-out: pTGI (converted)): 7.08 µM | GI50 (SR): 2 µM | CC50 (SR; [29]): 25.1 µM | TGI (SR; read-out: pTGI (converted)): 4.79 µM | GI50 (A498): 2.24 µM | CC50 (A498; [29]): 25.1 µM | TGI (A498; read-out: pTGI (converted)): 6.76 µM | GI50 (SNB-75): 4.9 µM | CC50 (SNB-75; [29]): 63.1 µM | TGI (SNB-75; read-out: pTGI (converted)): 20.4 µM | GI50 (M14): 5.25 µM | CC50 (M14; [29]): 55 µM | TGI (M14; read-out: pTGI (converted)): 18.6 µM | inhibition in vivo at 40 mg/kg [24]: 72% | Activity (Mus musculus [25]): 95 mg | ILS at 40 mg/kg [26]: 18% | GI50 [27]: 3.72 µM | CC50 [27, 29]: 79.4 µM | TGI ([27]; read-out: pTGI (converted)): 18.2 µM | GI50 (TK-10): 9.12 µM | CC50 (TK-10; [29]): 56.2 µM | TGI (TK-10; read-out: pTGI (converted)): 22.9 µM | GI50 ([28]; RPMI-8226): 2.09 µM | CC50 ([28]; RPMI-8226, read-out: pLC50 (converted)): > 100 µM | TGI ([28]; RPMI-8226, read-out: pTGI (converted)): 4.79 µM
